Key:
[1] = active metabolite; cited from earlier work
rats = assay: Drug self-administration and water-reinforced responding in rats (earlier studies); assay type: in vivo, rat
Method: Other work has extended the “anti-addictive” effect of 18-MC to oral intake of ethanol. In all cases, these effects last for at least 24 hours. […] Unlike 18-MC, ibogaine and many other iboga alkaloid congeners (approximately 30 tested) decrease responding for water as well as for drugs. And it was precisely this unique specificity that led to development and study of 18-MC.

Row | Compound | presence in plasma as metabolite of 18-MC [1] | responding for drugs (rats; rat, in vivo) | responding for water (non-drug reinforcer) (rats; same doses that decrease drug self-administration)
1 | COC(=O)[C@@]12C[C@H]3C[C@H](CCO)[C@@H]1N(CCc1c2[nH]c2ccccc12)C3 [18-hydroxycoronaridine] | present in plasma in low concentrations | – | –
2 | ibogaine [reference compound] | – | decrease | decrease

From patent US8993559B2, “Use of ibogamine congeners for treating obesity” (Albany Medical College, priority 2008, dated 2015)
